# In the supplement of paper PMC10307832:
# Key:
# Experiment in all cases: relative viability (nuclei count vs DMSO), 5 days (fraction); higher = more cells survive
# [1] = compound: C1=CC2=C(C=C(C(=C2N=C1)O)N=NC3=CC4=C(C=C3)C=C(C=C4)S(=O)(=O)O)S(=O)(=O)O + CC(C)C[C@H](NC(=O)[C@H](Cc1ccccc1)NC(=O)c1cnccn1)B(O)O [Bortezomib] (partner 0.002 µM)
# Procedure, shortened: (§1)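 One day after seeding in 1536-well plates, lung cancer cell lines were dosed by pin tool. Dosing was either single-drug or a fixed anchor-drug dose plus five library-drug doses (not always all listed) in √10 steps. After 5 days, nuclei were stained in one fix-and-stain step and counted on 4× images, and relative viability is the nuclei count of treated wells over that of vehicle wells, given as the median of duplicate plates.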
# [2] = compound: C1=CC2=C(C=C(C(=C2N=C1)O)N=NC3=CC4=C(C=C3)C=C(C=C4)S(=O)(=O)O)S(=O)(=O)O + CS(=O)(=O)N1CCN(Cc2cc3nc(-c4cccc5[nH]ncc45)nc(N4CCOCC4)c3s2)CC1 [Pictilisib] (partner 1 µM)
# Procedure, shortened: as §1
# [3] = compound: C1=CC2=C(C=C(C(=C2N=C1)O)N=NC3=CC4=C(C=C3)C=C(C=C4)S(=O)(=O)O)S(=O)(=O)O + O=C(c1cc(Cc2n[nH]c(=O)c3ccccc23)ccc1F)N1CCN(C(=O)C2CC2)CC1 [Olaparib] (partner 8 µM)
# Procedure, shortened: as §1
# AT-7519 + Dasatinib = compound: O=C(NC1CCNCC1)c1n[nH]cc1NC(=O)c1c(Cl)cccc1Cl [AT-7519] + Cc1nc(Nc2ncc(C(=O)Nc3c(C)cccc3Cl)s2)cc(N2CCN(CCO)CC2)n1 [Dasatinib] (partner 0.075 µM)
# Procedure, shortened: as §1
cell line,measurement,setting,value
ChaGo-K-1,relative viability,[1]; first compound 0.08 µM,1.05
same,relative viability,[1]; first compound 0.253 µM,1.03
same,relative viability,[1]; first compound 0.8 µM,0.986
same,relative viability,[1]; first compound 2.53 µM,0.958
same,relative viability,[1]; first compound 8 µM,0.557
same,relative viability,[2]; first compound 0.08 µM,0.645
same,relative viability,[2]; first compound 0.253 µM,0.669
same,relative viability,[2]; first compound 0.8 µM,0.673
same,relative viability,[2]; first compound 2.53 µM,0.851
same,relative viability,[2]; first compound 8 µM,0.711
same,relative viability,[3]; first compound 0.08 µM,0.445
same,relative viability,[3]; first compound 0.253 µM,0.405
same,relative viability,[3]; first compound 0.8 µM,0.438
same,relative viability,[3]; first compound 2.53 µM,0.422
same,relative viability,[3]; first compound 8 µM,0.341
same,relative viability,AT-7519 + Dasatinib; first compound 0.01 µM,0.583
same,relative viability,AT-7519 + Dasatinib; first compound 0.03162 µM,0.501
same,relative viability,AT-7519 + Dasatinib; first compound 0.3162 µM,0.611
same,relative viability,AT-7519 + Dasatinib; first compound 1 µM,0.543
EBC-1,relative viability,[1]; first compound 0.08 µM,0.648
same,relative viability,[1]; first compound 0.253 µM,0.515
same,relative viability,[1]; first compound 0.8 µM,0.585
same,relative viability,[1]; first compound 2.53 µM,0.494
same,relative viability,[1]; first compound 8 µM,0.636
same,relative viability,[2]; first compound 0.08 µM,0.511
same,relative viability,[2]; first compound 0.253 µM,0.333
same,relative viability,[2]; first compound 0.8 µM,0.439
same,relative viability,[2]; first compound 2.53 µM,0.391
same,relative viability,[2]; first compound 8 µM,0.499
same,relative viability,[3]; first compound 0.08 µM,0.808
same,relative viability,[3]; first compound 0.253 µM,0.634
same,relative viability,[3]; first compound 0.8 µM,0.694
same,relative viability,[3]; first compound 2.53 µM,0.758
same,relative viability,[3]; first compound 8 µM,0.732
EKVX,relative viability,[1]; first compound 0.08 µM,1.15
same,relative viability,[1]; first compound 0.253 µM,0.781
same,relative viability,[1]; first compound 0.8 µM,0.987
same,relative viability,[1]; first compound 2.53 µM,1.11
same,relative viability,[1]; first compound 8 µM,1.01
same,relative viability,[2]; first compound 0.08 µM,0.419
same,relative viability,[2]; first compound 0.253 µM,0.45
same,relative viability,[2]; first compound 0.8 µM,0.438
same,relative viability,[2]; first compound 2.53 µM,0.413
same,relative viability,[2]; first compound 8 µM,0.399
same,relative viability,[3]; first compound 0.08 µM,1.02
same,relative viability,[3]; first compound 0.253 µM,0.77
same,relative viability,[3]; first compound 0.8 µM,0.904
same,relative viability,[3]; first compound 2.53 µM,0.822
same,relative viability,[3]; first compound 8 µM,0.955
same,relative viability,AT-7519 + Dasatinib; first compound 0.01 µM,0.526
same,relative viability,AT-7519 + Dasatinib; first compound 0.03162 µM,0.388
same,relative viability,AT-7519 + Dasatinib; first compound 0.3162 µM,0.346
same,relative viability,AT-7519 + Dasatinib; first compound 1 µM,0.449
EMC-BAC-2,relative viability,[1]; first compound 0.08 µM,1.1
same,relative viability,[1]; first compound 0.253 µM,1.06
same,relative viability,[1]; first compound 0.8 µM,1.06
same,relative viability,[1]; first compound 2.53 µM,1.14
same,relative viability,[1]; first compound 8 µM,1
same,relative viability,[2]; first compound 0.08 µM,0.514
same,relative viability,[2]; first compound 0.253 µM,0.566
same,relative viability,[2]; first compound 0.8 µM,0.522
same,relative viability,[2]; first compound 2.53 µM,0.555
same,relative viability,[2]; first compound 8 µM,0.349
same,relative viability,[3]; first compound 0.08 µM,0.504
same,relative viability,[3]; first compound 0.253 µM,0.485
same,relative viability,[3]; first compound 0.8 µM,0.493
same,relative viability,[3]; first compound 2.53 µM,0.489
same,relative viability,[3]; first compound 8 µM,0.465
same,relative viability,AT-7519 + Dasatinib; first compound 0.01 µM,0.358
same,relative viability,AT-7519 + Dasatinib; first compound 0.03162 µM,0.327
same,relative viability,AT-7519 + Dasatinib; first compound 0.3162 µM,0.296
same,relative viability,AT-7519 + Dasatinib; first compound 1 µM,0.227
EPLC-272H,relative viability,[1]; first compound 0.08 µM,0.895
same,relative viability,[1]; first compound 0.253 µM,0.917
same,relative viability,[1]; first compound 0.8 µM,0.935
same,relative viability,[1]; first compound 2.53 µM,0.924
same,relative viability,[1]; first compound 8 µM,0.902
same,relative viability,[2]; first compound 0.08 µM,0.354
same,relative viability,[2]; first compound 0.253 µM,0.321
same,relative viability,[2]; first compound 0.8 µM,0.291
same,relative viability,[2]; first compound 2.53 µM,0.312
same,relative viability,[2]; first compound 8 µM,0.104
same,relative viability,[3]; first compound 0.08 µM,0.855
same,relative viability,[3]; first compound 0.253 µM,0.683
same,relative viability,[3]; first compound 0.8 µM,0.722
same,relative viability,[3]; first compound 2.53 µM,1
same,relative viability,[3]; first compound 8 µM,0.808
same,relative viability,AT-7519 + Dasatinib; first compound 0.01 µM,0.325
same,relative viability,AT-7519 + Dasatinib; first compound 0.03162 µM,0.339
same,relative viability,AT-7519 + Dasatinib; first compound 0.3162 µM,0.382
same,relative viability,AT-7519 + Dasatinib; first compound 1 µM,0.248
H3255,relative viability,[1]; first compound 0.08 µM,0.719
same,relative viability,[1]; first compound 0.253 µM,0.685
same,relative viability,[1]; first compound 0.8 µM,0.802
same,relative viability,[1]; first compound 2.53 µM,0.875
same,relative viability,[1]; first compound 8 µM,0.741
same,relative viability,[2]; first compound 0.08 µM,0.482
same,relative viability,[2]; first compound 0.253 µM,0.462
same,relative viability,[2]; first compound 0.8 µM,0.4
same,relative viability,[2]; first compound 2.53 µM,0.49
same,relative viability,[2]; first compound 8 µM,0.439
same,relative viability,[3]; first compound 0.08 µM,0.6
same,relative viability,[3]; first compound 0.253 µM,0.571
same,relative viability,[3]; first compound 0.8 µM,0.551
same,relative viability,[3]; first compound 2.53 µM,0.638
same,relative viability,[3]; first compound 8 µM,0.587
same,relative viability,AT-7519 + Dasatinib; first compound 0.01 µM,0.441
same,relative viability,AT-7519 + Dasatinib; first compound 0.03162 µM,0.417
same,relative viability,AT-7519 + Dasatinib; first compound 0.3162 µM,0.409
same,relative viability,AT-7519 + Dasatinib; first compound 1 µM,0.313
HARA,relative viability,[1]; first compound 0.08 µM,1.14
same,relative viability,[1]; first compound 0.253 µM,1.08
same,relative viability,[1]; first compound 0.8 µM,1.03
same,relative viability,[1]; first compound 2.53 µM,1.13
same,relative viability,[1]; first compound 8 µM,1.01
same,relative viability,[2]; first compound 0.08 µM,0.356
same,relative viability,[2]; first compound 0.253 µM,0.471
same,relative viability,[2]; first compound 0.8 µM,0.384
same,relative viability,[2]; first compound 2.53 µM,0.38
same,relative viability,[2]; first compound 8 µM,0.707
same,relative viability,[3]; first compound 0.08 µM,0.959
same,relative viability,[3]; first compound 0.253 µM,0.797
same,relative viability,[3]; first compound 0.8 µM,0.697
same,relative viability,[3]; first compound 2.53 µM,0.741
same,relative viability,[3]; first compound 8 µM,0.764
same,relative viability,AT-7519 + Dasatinib; first compound 0.01 µM,0.265
same,relative viability,AT-7519 + Dasatinib; first compound 0.03162 µM,0.28
same,relative viability,AT-7519 + Dasatinib; first compound 0.3162 µM,0.314
same,relative viability,AT-7519 + Dasatinib; first compound 1 µM,0.211
HCC-15,relative viability,[1]; first compound 0.08 µM,1.16
same,relative viability,[1]; first compound 0.253 µM,1.02
same,relative viability,[1]; first compound 0.8 µM,1.02
same,relative viability,[1]; first compound 2.53 µM,0.985
same,relative viability,[1]; first compound 8 µM,0.992
same,relative viability,[2]; first compound 0.08 µM,0.839
same,relative viability,[2]; first compound 0.253 µM,0.766
same,relative viability,[2]; first compound 0.8 µM,0.635
same,relative viability,[2]; first compound 2.53 µM,0.804
same,relative viability,[2]; first compound 8 µM,0.636
same,relative viability,[3]; first compound 0.08 µM,0.879
same,relative viability,[3]; first compound 0.253 µM,0.682
same,relative viability,[3]; first compound 0.8 µM,0.714
same,relative viability,[3]; first compound 2.53 µM,0.698
same,relative viability,[3]; first compound 8 µM,0.727
same,relative viability,AT-7519 + Dasatinib; first compound 0.01 µM,0.669
same,relative viability,AT-7519 + Dasatinib; first compound 0.03162 µM,0.584
same,relative viability,AT-7519 + Dasatinib; first compound 0.3162 µM,0.433
same,relative viability,AT-7519 + Dasatinib; first compound 1 µM,0.191
HCC-44,relative viability,[1]; first compound 0.08 µM,0.903
same,relative viability,[1]; first compound 0.253 µM,0.835
same,relative viability,[1]; first compound 0.8 µM,0.931
same,relative viability,[1]; first compound 2.53 µM,0.905
same,relative viability,[1]; first compound 8 µM,0.9
same,relative viability,[2]; first compound 0.08 µM,0.649
same,relative viability,[2]; first compound 0.253 µM,0.636
same,relative viability,[2]; first compound 0.8 µM,0.548
same,relative viability,[2]; first compound 2.53 µM,0.649
same,relative viability,[2]; first compound 8 µM,0.766
same,relative viability,[3]; first compound 0.08 µM,1.02
same,relative viability,[3]; first compound 0.253 µM,0.945
same,relative viability,[3]; first compound 0.8 µM,0.956
same,relative viability,[3]; first compound 2.53 µM,0.982
same,relative viability,[3]; first compound 8 µM,0.933
